Assay results taken from US20210392895A1, “NOVEL OXADIAZOLES” (PI INDUSTRIES LIMITED, priority 2018, published 2021).
Where a name gives a salt, the structure may show the parent alone.

Legend:
Pyricularia oryzae = experiment: microbe, parasite or virus in culture; type: cell-based; conditions: 168 h, read-out: control
Rhizoctonia solani = Rhizoctonia solani (rice sheath blight/potato black scurf) in vitro test, radial growth on Potato Dextrose Agar; type: cell-based; conditions: 168 h, compared to the untreated check, radial growth after seven days, read-out: control
Botrytis cinerea = Botrytis cinerea (gray mold) in vitro test, radial growth on Potato Dextrose Agar; type: cell-based; conditions: 168 h, compared to the untreated check, radial growth after seven days, read-out: control
Alternaria solani = Alternaria solani (early blight of tomato/potato) in vitro test, radial growth on Potato Dextrose Agar; type: cell-based; conditions: 168 h, compared to the untreated check, radial growth after seven days, read-out: control
Phakopsora pachyrhizi = Phakopsora pachyrhizi test in soybean (greenhouse, preventive activity, disease severity rating); type: in vivo; conditions: preventive spray on soybean, compared to the untreated check
Summary of the method: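 Greenhouse-raised young soybean plants sprayed with compound at stated rates, then inoculated one day later with 2.1×10^6 P. pachyrhizi spores and held at 25° C, 90% RH. Disease severity (0-100%) rated visually 3, 7, 10 and 15 days after application; % control calculated versus untreated plants.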

Colletotrichum capsici = Colletotrichum capsici (anthracnose) in vitro test, radial growth on Potato Dextrose Agar; conditions: Colletotrichum truncatum, 168 h, read-out: control
Corynespora cassicola = Corynespora cassicola (leaf spot of tomato) in vitro test, radial growth on Potato Dextrose Agar; type: cell-based; conditions: 168 h, compared to the untreated check, radial growth after seven days, read-out: control

O=C(c1ccncc1)N1CC[C@H](Oc2ccc(-c3noc(C(F)(F)F)n3)cc2F)C1 [Compound 59, (S)-(3-(2-fluoro-4-(5-(trifluoromethyl)-1,2,4-oxadiazol-3-yl)phenoxy)pyrrolidin-1-yl)(pyridin-4-yl)methanone]
> 70%: inhibition of growth at 300 ppm (Pyricularia oryzae) | inhibition of growth at 300 ppm (Rhizoctonia solani) | inhibition of growth at 300 ppm (Botrytis cinerea) | inhibition of growth at 300 ppm (Alternaria solani) | pest or weed control at 500 ppm (Phakopsora pachyrhizi) | inhibition of growth at 300 ppm (Colletotrichum capsici)

CC(=O)N1CC[C@H](Oc2ccc(-c3noc(C(F)(F)F)n3)c(F)c2)C1 [Compound 68, (S)-1-(3-(3-fluoro-4-(5-(trifluoromethyl)-1,2,4-oxadiazol-3-yl)phenoxy)pyrrolidin-1-yl)ethan-1-one]
> 70%: inhibition of growth at 300 ppm (Pyricularia oryzae) | inhibition of growth at 300 ppm (Rhizoctonia solani) | inhibition of growth at 300 ppm (Botrytis cinerea) | inhibition of growth at 300 ppm (Alternaria solani) | inhibition of growth at 300 ppm (Colletotrichum capsici)

FC(F)(F)c1nc(-c2ccc(OC3CCNCC3)cc2)no1 [Compound 85, 3-(4-(piperidin-4-yloxy)phenyl)-5-(trifluoromethyl)-1,2,4-oxadiazole Hydrochloride]
> 70%: inhibition of growth at 300 ppm (Pyricularia oryzae) | inhibition of growth at 300 ppm (Rhizoctonia solani) | inhibition of growth at 300 ppm (Alternaria solani) | inhibition of growth at 300 ppm (Corynespora cassicola) | pest or weed control at 500 ppm (Phakopsora pachyrhizi)

FC(F)(F)c1nc(-c2ccc(O[C@H]3CCN(Cc4ccccc4)C3)cc2)no1 [Compound 137, (S)-3-(4-((1-benzylpyrrolidin-3-yl)oxy)phenyl)-5-(trifluoromethyl)-1,2,4-oxadiazole]
> 70%: inhibition of growth at 300 ppm (Pyricularia oryzae) | inhibition of growth at 300 ppm (Rhizoctonia solani) | inhibition of growth at 300 ppm (Alternaria solani) | inhibition of growth at 300 ppm (Corynespora cassicola)

FC(F)(F)c1nc(-c2ccc(S[C@@H]3CCNC3)cc2)no1 [Compound 158, (R)-3-(4-(pyrrolidin-3-ylthio)phenyl)-5-(trifluoromethyl)-1,2,4-oxadiazole Hydrochloride]
> 70%: inhibition of growth at 300 ppm (Alternaria solani) | inhibition of growth at 300 ppm (Corynespora cassicola)

Cc1ccc(CN2CC[C@H](Oc3ccc(-c4noc(C(F)(F)F)n4)cc3)C2)cc1 [Compound 163, (S)-3-(4-((1-(4-methylbenzyl)pyrrolidin-3-yl)oxy)phenyl)-5-(trifluoromethyl)-1,2,4-oxadiazole]
> 70%: inhibition of growth at 300 ppm (Pyricularia oryzae) | inhibition of growth at 300 ppm (Rhizoctonia solani) | inhibition of growth at 300 ppm (Botrytis cinerea) | inhibition of growth at 300 ppm (Alternaria solani) | inhibition of growth at 300 ppm (Corynespora cassicola)

CC(=O)N1CC[C@@H](Sc2ccc(-c3noc(C(F)(F)F)n3)cc2)C1 [Compound 165, (R)-1-(3-((4-(5-(trifluoromethyl)-1,2,4-oxadiazol-3-yl)phenyl)thio)pyrrolidin-1-yl)ethan-1-one]
> 70%: inhibition of growth at 300 ppm (Pyricularia oryzae) | inhibition of growth at 300 ppm (Rhizoctonia solani) | inhibition of growth at 300 ppm (Botrytis cinerea) | inhibition of growth at 300 ppm (Alternaria solani) | inhibition of growth at 300 ppm (Corynespora cassicola) | inhibition of growth at 300 ppm (Colletotrichum capsici)

FC(F)(F)c1nc(-c2ccc(O[C@H]3CCN(Cc4ccc(Cl)cc4)C3)cc2)no1 [Compound 180, (S)-3-(4-((1-(4-chlorobenzyl)pyrrolidin-3-yl)oxy)phenyl)-5-(trifluoromethyl)-1,2,4-oxadiazole]
> 70%: inhibition of growth at 300 ppm (Pyricularia oryzae) | inhibition of growth at 300 ppm (Botrytis cinerea) | inhibition of growth at 300 ppm (Alternaria solani) | inhibition of growth at 300 ppm (Corynespora cassicola) | inhibition of growth at 300 ppm (Colletotrichum capsici)
